Experimental findings from patent EP0559893A1, “XANTHINE DERIVATIVE” (priority 1990, dated 1992) are described below.

For one data set, the system named is calvaria. In words: Inhibitory effect on bone absorption (PTH-stimulated calcium release from cultured calvaria). The format is cell-based, mouse. Particulars: test compound 10^-4 M, PTH 10^-8 M; for inhibition at 100 µM: Mus musculus, bone absorption, 96 hours, read-out: Inhibition Rate (%); for Ca Concentration (mg/dl) (n = 6, mean +/- S.E.M.): culture collected after 96 hours; for bone absorption by PTH (result in words): Duncan's test. How it is done: The calvaria was excised from a newborn dd mouse (5 to 6 days old) under sterile conditions. The calvaria was washed with a modified Dulbecco phosphate buffer physiological saline solution containing neither calcium nor magnesium (a product of Gibco Oriental), and divided into two parts along the center suture.
The culture medium was renewed 48 hours after the start of culturing. For determining the amount of calcium liberated from the bone by the action of PTH (bone absorption), the calcium content in the culture as collected after 96 hours of culturing was measured. The calcium concentration in the culture was measured with Calcium C Test Wako (manufactured by Wako Pure Chemical Industries, Ltd.). The bone absorption rate was calculated using the following equation. The test of significance of the inhibitory effect on bone absorption was performed by the Duncan's multi-weight comparative test. Inhibition rate (%) = [(CP - CD )/(CP - C₀)] × 100 [formula] CD indicates the total calcium concentration in the culture treated with both the test compound and PTH; CP indicates the total calcium concentration in the culture treated with only PTH (control); and C₀ indicates the total calcium concentration in the culture containing neither the test compound nor PTH.

The next data set concerns dd male mice. In words: Acute toxicity test. The format is in vivo. Particulars: oral administration; mortality observed 7 days after the administration. The text has this:
Three dd male mice having a weight of 20 ± 1 g were used for one group. A test compound was orally administered to the mice.
The mortality was observed 7 days after the administration to determine the minimum lethal dose (MLD).

A further data set concerns the target T1, Adenosine A₁ receptor (Cavia porcellus, UniProt P47745).
T1 sequence (P47745 1-326): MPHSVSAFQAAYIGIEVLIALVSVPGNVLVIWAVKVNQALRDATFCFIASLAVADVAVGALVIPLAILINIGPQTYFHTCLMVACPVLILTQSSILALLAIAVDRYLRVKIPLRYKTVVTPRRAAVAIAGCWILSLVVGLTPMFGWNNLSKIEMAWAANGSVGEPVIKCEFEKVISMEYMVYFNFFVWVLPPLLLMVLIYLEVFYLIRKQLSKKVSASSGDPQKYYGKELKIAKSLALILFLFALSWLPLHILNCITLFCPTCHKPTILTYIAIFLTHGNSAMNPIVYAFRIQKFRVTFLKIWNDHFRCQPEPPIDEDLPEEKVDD
In words: Adenosine A1 receptor binding test (3H-CHA binding). Particulars: for inhibition at 100 µM: read-out: A1 Receptor Inhibition (%) 10^-4 M; for inhibition at 10 µM: read-out: A1 Receptor Inhibition (%) 10^-5 M.

A further data set addresses Adenosine A₂ receptor (Rattus norvegicus, UniProt P30543). In words: Adenosine A2 receptor binding test (3H-NECA binding). Particulars: for Ratio of Affinity with Receptor (A2 /A1 ): A2 (rat corpus striatum) versus A1 (guinea pig cerebrum); for inhibition at 100 µM: read-out: A2 Receptor Inhibition (%) 10^-4 M; for inhibition at 10 µM: read-out: A2 Receptor Inhibition (%) 10^-5 M.

The next data set relates to ddY male mice. Kind of data set: Mouse locomotor activity. Particulars: po, enhancement of locomotor activity, measured for 3 hours after administration, read-out: Minimum Effective Dose (mg/kg, p.o.). The format is in vivo. How it is done: Five ddY male mice having a weight of 19 to 21 g were used for one group. A test compound and theophylline were orally administered to the mice and then the mice were out in an acrylic test cage (length 26 × width 45 × height 25 cm). The amount of locomotor activity of each mouse was measured with Automex II (manufactured by Columbus) for 3 hours after the administration. Test of significance between the control group and the test compound-administered group was performed by the Student's t-test, and enhancement of the locomotor activity was judged. Furthermore, the minimum effective dose showing a significant difference was determined.

Sequence of Adenosine A₂ receptor (P30543 whole entry): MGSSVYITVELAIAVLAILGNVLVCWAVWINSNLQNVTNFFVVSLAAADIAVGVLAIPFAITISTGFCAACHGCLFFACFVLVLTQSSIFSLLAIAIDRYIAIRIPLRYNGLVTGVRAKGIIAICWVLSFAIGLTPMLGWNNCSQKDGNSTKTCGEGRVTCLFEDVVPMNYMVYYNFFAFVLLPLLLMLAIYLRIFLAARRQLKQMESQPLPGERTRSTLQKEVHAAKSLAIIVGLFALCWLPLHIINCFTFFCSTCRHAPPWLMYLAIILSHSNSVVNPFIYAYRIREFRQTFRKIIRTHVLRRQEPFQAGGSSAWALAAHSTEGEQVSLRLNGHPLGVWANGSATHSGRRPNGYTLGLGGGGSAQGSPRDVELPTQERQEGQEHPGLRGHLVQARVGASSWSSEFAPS

For `COc1cc(/C=C/c2nc3c(c(=O)n(C)c(=O)n3C)n2C)cc(OC)c1OC` [Comparative Compound X, 1,3,7-trimethyl-8-[(E)-3,4,5-trimethoxystyryl]xanthine, reference compound], in the data set on calvaria, the inhibition at 100 µM was 55%; the “Ca Concentration (mg/dl) (n = 6, mean +/- S.E.M.)” value turned out to be 10.32 ± 0.13 mg/dL; the “bone absorption by PTH (result in words)” value is reported as “significantly inhibited bone absorption by PTH”.
Turning to `CCCn1c(=O)c2nc(/C=C/c3ccccc3)[nH]c2n(CCC)c1=O` [Compound 1, 1,3-Dipropyl-8-(E)-styrylxanthine], the “MLD” value in the data set with dd male mice is above 300 mg/kg.
On to `CCCn1c(=O)c2c(nc(/C=C/c3ccccc3)n2C)n(CCC)c1=O` [Compound 2, 1,3-Dipropyl-7-methyl-8-(E)-styrylxanthine], for which, on Adenosine A₁ receptor, the Ki worked out at 1.4 µM, the inhibition at 100 µM stood at 82% and the inhibition at 10 µM is 64%. Also, on Adenosine A₂ receptor, the “Ratio of Affinity with Receptor (A2 /A1 )” value (shortened to “Ratio of Affinity”) is 52, the inhibition at 100 µM stood at 96% and the inhibition at 10 µM worked out at 95%. Besides, the minimal effective dose with ddY male mice came to 1.25 mg/kg.
With `CCCn1c(=O)c2nc(/C(C)=C/c3ccccc3)[nH]c2n(CCC)c1=O` [Compound 3, 1,3-Dipropyl-8-[(E)-α-methylstyryl]xanthine], the “MLD” value in the data set on dd male mice is given as above 300 mg/kg.
Turning to `CCCn1c(=O)c2c(nc(/C(C)=C/c3ccccc3)n2C)n(CCC)c1=O` [Compound 4, 1,3-Dipropyl-7-methyl-8-[(E)-α-methylstyryl]xanthine], the “MLD” value in the data set with dd male mice is above 300 mg/kg.
The same measure, in the same setting: then `CCCn1c(=O)c2nc(/C=C/c3ccc(Cl)cc3)[nH]c2n(CCC)c1=O` [Compound 5, 8-[(E)-4-Chlorostyryl]-1,3-dipropylxanthine], with above 300 mg/kg; and `CCCn1c(=O)c2c(nc(/C=C/c3ccc(Cl)cc3)n2C)n(CCC)c1=O` [Compound 6, 8-[(E)-4-Chlorostyryl]-7-methyl-1,3-dipropylxanthine], with above 300 mg/kg; and `CCCn1c(=O)c2nc(/C=C/c3ccc(Cl)c(Cl)c3)[nH]c2n(CCC)c1=O` [Compound 7, 8-[(E)-3,4-Dichlorostyryl]-1,3-dipropylxanthine], with above 300 mg/kg.
The same measure, in the same setting: then `CCCn1c(=O)c2c(nc(/C=C/c3ccc(Cl)c(Cl)c3)n2C)n(CCC)c1=O` [Compound 8, 8-[(E)-3,4-Dichlorostyryl]-1,3-dipropyl-7-methylxanthine], with above 300 mg/kg; and `CCCn1c(=O)c2nc(/C=C/c3ccc(OC)cc3)[nH]c2n(CCC)c1=O` [Compound 9, 1,3-Dipropyl-8-[(E)-4-methoxystyryl]xanthine], with above 300 mg/kg.
On to `CCCn1c(=O)c2c(nc(/C=C/c3ccc(OC)cc3)n2C)n(CCC)c1=O` [Compound 10, 1,3-Dipropyl-8-[(E)-4-methoxystyryl]-7-methylxanthine], for which, at Adenosine A₁ receptor, the affinity corresponds to a Ki of 2 µM, the inhibition at 100 µM is 86% and the inhibition at 10 µM came out at 65%. Moreover, at Adenosine A₂ receptor, the “Ratio of Affinity” value was 51, the inhibition at 100 µM came to 95% and the inhibition at 10 µM was 95%. Also, the “MLD” value in the data set with dd male mice is recorded as above 300 mg/kg.
Regarding `CCCn1c(=O)c2nc(/C=C/c3ccc(OC)c(OC)c3)[nH]c2n(CCC)c1=O` [Compound 11, 8-[(E)-3,4-Dimethoxystyryl]-1,3-dipropylxanthine], in the data set with dd male mice, the “MLD” value was above 300 mg/kg.
In the case of `CCCn1c(=O)c2c(nc(/C=C/c3ccc(OC)c(OC)c3)n2C)n(CCC)c1=O` [Compound 12, 8-[(E)-3,4-Dimethoxystyryl]-1,3-dipropyl-7-methylxanthine], at Adenosine A₁ receptor, the Ki amounted to 3.1 µM, the inhibition at 100 µM came out at 74% and the inhibition at 10 µM worked out at 61%. For the same compound, on Adenosine A₂ receptor, the inhibition at 100 µM was found to be 97% and the inhibition at 10 µM came to 96%. The “MLD” value in the data set on dd male mice is given as above 300 mg/kg. Besides, in the data set on ddY male mice, the minimal effective dose was determined as 0.63 mg/kg.
On to `CCCn1c(=O)c2nc(/C=C/c3cc(OC)c(OC)c(OC)c3)[nH]c2n(CCC)c1=O` [Compound 13, 1,3-Dipropyl-8-[(E)-3,4,5-trimethoxystyryl]xanthine], for which the “MLD” value with dd male mice is reported as above 300 mg/kg.
On to `CCCn1c(=O)c2c(nc(/C=C/c3cc(OC)c(OC)c(OC)c3)n2C)n(CCC)c1=O` [Compound 14, 1,3-Dipropyl-7-methyl-8-[(E)-3,4,5-trimethoxystyryl]xanthine], for which, on Adenosine A₁ receptor, the Ki came to 65 µM, the inhibition at 100 µM amounted to 50% and the inhibition at 10 µM amounted to 30%. For the same compound, in the data set with calvaria, the inhibition at 100 µM is 119%; the “bone absorption inhibition rate compared with Comparative Compound X (result in words)” value is on record as “significantly higher than that of Comparative Compound X”; the “Ca Concentration (mg/dl) (n = 6, mean +/- S.E.M.)” value is 7.66 ± 0.08 ++ mg/dl; the “bone absorption by PTH (result in words)” value was “significantly inhibited bone absorption by PTH”. For the same compound, on Adenosine A₂ receptor, the “Ratio of Affinity” value is 4600, the inhibition at 100 µM was determined as 92% and the inhibition at 10 µM was found to be 94%. Further, in the data set on dd male mice, the “MLD” value is above 300 mg/kg. For the same compound, the minimal effective dose in the data set with ddY male mice was determined as 10 mg/kg.
Take `CCCn1c(=O)c2[nH]c(/C=C/c3ccco3)nc2n(CCC)c1=O` [Compound 15, 1,3-Dipropyl-8-[2-(E)-(2-furyl)vinyl]xanthine]: the “MLD” value with dd male mice is given as above 300 mg/kg.
Still for that read-out and setting: in the case of `CCCn1c(=O)c2[nH]c(/C=C/c3cccs3)nc2n(CCC)c1=O` [Compound 17, 1,3-Dipropyl-8-[2-(E)-(2-thienyl)vinyl]xanthine] it was above 300 mg/kg; in that of `CCCn1c(=O)c2c(nc(/C=C/c3cccs3)n2C)n(CCC)c1=O` [Compound 18, 1,3-Dipropyl-7-methyl-8-[2-(E)-(2-thienyl)vinyl]xanthine], above 300 mg/kg.
In the case of `C=CCn1c(=O)c2c(nc(/C=C/c3cc(OC)c(OC)c(OC)c3)n2C)n(CC=C)c1=O` [Compound 24, 1,3-Diallyl-7-methyl-8-[(E)-3,4,5-trimethoxystyryl]xanthine], at Adenosine A₁ receptor, the inhibitory constant (Ki) was above 100 µM, the inhibition at 100 µM is 31% and the inhibition at 10 µM was determined as 31%. At Adenosine A₂ receptor, the inhibition at 100 µM came out at 96% and the inhibition at 10 µM came out at 93%.
For the compound `Cn1c(=O)c2[nH]cnc2n(C)c1=O` [Theophylline, theophylline, reference compound], the minimal effective dose in the data set with ddY male mice turned out to be 20 mg/kg.

By inhibition is commonly meant the drop in the measured response relative to a control, in per cent. The Ki is a measure of affinity in units of concentration, obtained from inhibition or displacement. A high value points to weaker binding.
